PubChem BioAssay AID2060489 (Molecular Pharmacology Branch, DTP, NCI, 2025)
Each block holds one compound with its values, some of them ahead of it.

Tested on: 922993-354-T-J3-PDC complex spheroids, viability
Assay: Anticancer human tumor 922993-354-T-J3-PDC patient-derived endometrial carcinoma cell line growth inhibition [GQUAD]
Details: for IC50: curve of first compound; for viability, T/C: stronger effect = lower value
How it was run: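 Tumor cells were grown as complex spheroids with HUVEC endothelial cells and mesenchymal stem cells as stroma. G-quadruplex stabilizers were combined with targeted agents over half-log dilutions from near the clinical Cmax, or from 10 microM.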

[1] = second compound 0.0316 µM, first compound 0.0316 µM
[2] = second compound 0.0316 µM, first compound 0.1 µM
[3] = second compound 0.0316 µM, first compound 0.316 µM
[4] = second compound 0.0316 µM, first compound 1 µM
[5] = second compound 0.0316 µM, first compound 3.16 µM
[6] = second compound 0.0316 µM, first compound 10 µM
[7] = second compound 0.1 µM, first compound 0.0316 µM
[8] = second compound 0.1 µM, first compound 0.1 µM
[9] = second compound 0.1 µM, first compound 0.316 µM
[10] = second compound 0.1 µM, first compound 1 µM
[11] = second compound 0.1 µM, first compound 3.16 µM
[12] = second compound 0.1 µM, first compound 10 µM
[13] = second compound 0.316 µM, first compound 0.0316 µM
[14] = second compound 0.316 µM, first compound 0.1 µM
[15] = second compound 0.316 µM, first compound 0.316 µM
[16] = second compound 0.316 µM, first compound 1 µM
[17] = second compound 0.316 µM, first compound 3.16 µM
[18] = second compound 0.316 µM, first compound 10 µM
[19] = second compound 1 µM, first compound 0.0316 µM
[20] = second compound 1 µM, first compound 0.1 µM
[21] = second compound 1 µM, first compound 0.316 µM
[22] = second compound 1 µM, first compound 1 µM
[23] = second compound 1 µM, first compound 3.16 µM
[24] = second compound 1 µM, first compound 10 µM
[25] = second compound 3.16 µM, first compound 0.0316 µM
[26] = second compound 3.16 µM, first compound 0.1 µM
[27] = second compound 3.16 µM, first compound 0.316 µM
[28] = second compound 3.16 µM, first compound 1 µM
[29] = second compound 3.16 µM, first compound 3.16 µM
[30] = second compound 3.16 µM, first compound 10 µM
[31] = second compound 10 µM, first compound 0.0316 µM
[32] = second compound 10 µM, first compound 0.1 µM
[33] = second compound 10 µM, first compound 0.316 µM
[34] = second compound 10 µM, first compound 1 µM
[35] = second compound 10 µM, first compound 3.16 µM
[36] = second compound 10 µM, first compound 10 µM
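Note: spheroids exposed to compounds for seven days.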
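Throughout, for viability, T/C: 100% = DMSO vehicle control viability.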

SMILES: COc1ncnc(C2CC2)c1-c1ncc2cnn(Cc3ccc(-c4nc(C(F)(F)F)cn4C(C)C)cc3)c2n1 + Cc1[nH]c2ccc(F)cc2c1-c1nc2c3cccnc3c3ncccc3c2[nH]1
IC50 (second compound 0.0316 µM): > 10000 nM
IC50 (second compound 0.1 µM): > 10000 nM
IC50 (second compound 0.316 µM): > 10000 nM
IC50 (second compound 1 µM): > 10000 nM
IC50 (second compound 3.16 µM): > 10000 nM
IC50 (second compound 10 µM): > 10000 nM
viability, T/C [1]: 94.6%
viability, T/C [2]: 87.3%
viability, T/C [3]: 80.7%
viability, T/C [4]: 82.3%
viability, T/C [5]: 90.7%
viability, T/C [6]: 88.8%
viability, T/C [7]: 123%
viability, T/C [8]: 99.2%
viability, T/C [9]: 90.1%
viability, T/C [10]: 70.1%
viability, T/C [11]: 96.2%
viability, T/C [12]: 93.2%
viability, T/C [13]: 97.2%
viability, T/C [14]: 111%
viability, T/C [15]: 94.7%
viability, T/C [16]: 92.2%
viability, T/C [17]: 91.4%
viability, T/C [18]: 79.8%
viability, T/C [19]: 98.2%
viability, T/C [20]: 86.6%
viability, T/C [21]: 107%
viability, T/C [22]: 88.2%
viability, T/C [23]: 110%
viability, T/C [24]: 95.1%
viability, T/C [25]: 80.2%
viability, T/C [26]: 116%
viability, T/C [27]: 105%
viability, T/C [28]: 124%
viability, T/C [29]: 123%
viability, T/C [30]: 90.6%
viability, T/C [31]: 104%
viability, T/C [32]: 103%
viability, T/C [33]: 116%
viability, T/C [34]: 92.3%
viability, T/C [35]: 95.7%
viability, T/C [36]: 97.6%

IC50 (second compound 0.0316 µM): > 10000 nM
IC50 (second compound 0.1 µM): 255 nM
IC50 (second compound 0.316 µM): < 31.6 nM
IC50 (second compound 1 µM): 480 nM
IC50 (second compound 3.16 µM): < 31.6 nM
IC50 (second compound 10 µM): < 31.6 nM
SMILES: CC(C)n1c(=O)n(C)c2cnc3cc(F)c(-c4ccc(OCCCN5CCCCC5)nc4)cc3c21 + Cc1cnc(CNC(=O)c2c(=O)c3ccc(N4CCCN(C)CC4)nc3n3c2sc2ccccc23)cn1
viability, T/C [1]: 87.1%
viability, T/C [2]: 75%
viability, T/C [3]: 59.3%
viability, T/C [4]: 59.8%
viability, T/C [5]: 52.9%
viability, T/C [6]: 52%
viability, T/C [7]: 53.6%
viability, T/C [8]: 54.5%
viability, T/C [9]: 44.9%
viability, T/C [10]: 45.4%
viability, T/C [11]: 52.9%
viability, T/C [12]: 41.6%
viability, T/C [13]: 52.2%
viability, T/C [14]: 41.4%
viability, T/C [15]: 46.9%
viability, T/C [16]: 40%
viability, T/C [17]: 59.2%
viability, T/C [18]: 46.6%
viability, T/C [19]: 44.1%
viability, T/C [20]: 53.9%
viability, T/C [21]: 54.4%
viability, T/C [22]: 49.5%
viability, T/C [23]: 45.6%
viability, T/C [24]: 38.6%
viability, T/C [25]: 45.4%
viability, T/C [26]: 45.6%
viability, T/C [27]: 49%
viability, T/C [28]: 48.6%
viability, T/C [29]: 58.8%
viability, T/C [30]: 44.6%
viability, T/C [31]: 41.9%
viability, T/C [32]: 43.6%
viability, T/C [33]: 36.6%
viability, T/C [34]: 42.1%
viability, T/C [35]: 37.9%
viability, T/C [36]: 28.3%

IC50 (second compound 0.0316 µM): < 31.6 nM
IC50 (second compound 0.1 µM): < 31.6 nM
IC50 (second compound 0.316 µM): < 31.6 nM
IC50 (second compound 1 µM): < 31.6 nM
IC50 (second compound 3.16 µM): < 31.6 nM
IC50 (second compound 10 µM): < 31.6 nM
SMILES: CC1COCCN1c1cc(-c2ccnn2C)c2ccnc(-c3ccn[nH]3)c2n1 (stereo unspecified) + Cc1cnc(CNC(=O)c2c(=O)c3ccc(N4CCCN(C)CC4)nc3n3c2sc2ccccc23)cn1
viability, T/C [1]: 49.1%
viability, T/C [2]: 50.3%
viability, T/C [3]: 42.2%
viability, T/C [4]: 24.7%
viability, T/C [5]: 24.3%
viability, T/C [6]: 21.9%
viability, T/C [7]: 45.4%
viability, T/C [8]: 42.9%
viability, T/C [9]: 25.3%
viability, T/C [10]: 25.7%
viability, T/C [11]: 28.9%
viability, T/C [12]: 20.7%
viability, T/C [13]: 45.5%
viability, T/C [14]: 44.4%
viability, T/C [15]: 37.2%
viability, T/C [16]: 33.5%
viability, T/C [17]: 22.9%
viability, T/C [18]: 20.9%
viability, T/C [19]: 43.7%
viability, T/C [20]: 51.7%
viability, T/C [21]: 46%
viability, T/C [22]: 43.8%
viability, T/C [23]: 22.9%
viability, T/C [24]: 6.94%
viability, T/C [25]: 50.1%
viability, T/C [26]: 43.8%
viability, T/C [27]: 46.6%
viability, T/C [28]: 36.6%
viability, T/C [29]: 8.14%
viability, T/C [30]: 0.53%
viability, T/C [31]: 51.9%
viability, T/C [32]: 42%
viability, T/C [33]: 46.3%
viability, T/C [34]: 22.2%
viability, T/C [35]: 0.68%
viability, T/C [36]: 0.18%
